In patent US20240228555A9, “ANTIMICROBIAL PEPTIDOMIMETICS” (Basilea Pharmaceutica International AG, Allschwil, priority 2020, published 2024):
Where a SMILES comes first, the peptide text is derived from it. Bridges are numbered along the chain shown (N, C = ends). [ ]: non-standard residue; d: D form. Hyp = O=C(O)[C@@H]1C[C@@H](O)CN1; Pen = CC(C)(S)[C@H](N)C(=O)O; dDab = NCC[C@@H](N)C(=O)O; Dab = NCC[C@H](N)C(=O)O

Legend:
[1] = test system: Escherichia coli ATCC 25922; conditions: ATCC 25922
Method: (§1) Lyophilized peptides were weighed on a Microbalance (Mettler MT5) and dissolved in sterile water to a final concentration of 1 mg/mL. Stock solutions were kept at +4° C., light protected.
(§2) Colonies of the microorganisms were diluted in saline (0.85%, NaCl) and adjusted using a McFarland reader (bioMérieux SA, Marcy-l'Etoile, France) to 0.5 McFarland standard. Subsequently, the bacterial suspension was diluted in Mueller-Hinton II (MHII, cation adjusted) broth to give approximately 5×10^5 colony forming units (CFU/mL).
(§3) 10^6 colony forming units (CFU)/mL. Aliquots (90 μl) of inoculate were added to 10 μl of water+P-80 (Polysorbate 80, 0.002% final concentration) containing the peptide in serial two-fold dilutions at 10 fold final concentration. The following microorganisms were used to determine antibiotic selectivity of the peptides: Escherichia coli ATCC 25922, Escherichia coli MCR-1 Af 45 and Klebsiella pneumoniae SSI3010.

[2] = test system: Escherichia coli MCR-1 Af 45; conditions: Mueller-Hinton broth II, no visible growth after 18-20 hours at 35° C.
Method: as §1, §2, §3

[3] = test system: Klebsiella pneumoniae SSI3010; conditions: SSI3010
Method: as §1, §2, §3

[4] = test system: human red blood cells (hRBC); assay type: cell-based; conditions: red cells of human, 1 h, 0.2 g/L
Method: as §1
The peptides were tested for their hemolytic activity against human red blood cells (hRBC). Fresh hRBC were washed three times with phosphate buffered saline (PBS) and centrifuged for 5 min at 3000×g. Compounds (200 μg/mL) were incubated with 20% hRBC (v/v) for 1 h at 37° C. and shaking at 300 rpm. A value of 0% and 100% cell lyses, respectively, was determined by incubation of hRBC in the presence of PBS and 2.5% Triton X-100 in H2O, respectively. The samples were centrifuged, the supernatants were 8-fold diluted in PBS buffer and the optical densities (OD) were measured at 540 nm. The 100% lyses value (OD540H2O) gave an OD540 of approximately 0.5-1.0.
Percent hemolysis was calculated as follows: (OD540peptide/OD540H2O)×100%.

Row | Compound | Escherichia coli ATCC 25922 MIC [1] [µg/mL] | Escherichia coli MCR-1 Af 45 MIC [2] [µg/mL] | Klebsiella pneumoniae SSI3010 MIC [3] [µg/mL] | Hemolysis at 0.2 g/L [4] [%]
1 | CC[C@H](C)[C@@H]1NC(=O)[C@@H](NC(=O)[C@H](Cc2ccc(O)cc2)NC(=O)[C@@H](NC(=O)[C@@H](NC(=O)[C@@H]2C[C@@H](O)CN2C(=O)[C@@H](N)C(C)C)[C@@H](C)CC)[C@@H](C)O)C(C)(C)SSC[C@@H](C(=O)N[C@@H](CO)C(=O)N[C@@H](CCCNC(=N)N)C(=O)N[C@@H](Cc2ccc(O)cc2)C(=O)O)NC(=O)[C@H](CCCCN)NC(=O)[C@@H](CCN)NC(=O)[C@H]([C@@H](C)O)NC(=O)[C@H](CCN)NC(=O)[C@H](CCCNC(=N)N)NC1=O [Example 104, Val-Hyp-Ile-Thr-Tyr-Pen-Ile-Arg-Dab-Thr-^DDab-Lys-Cys-Ser-Arg-Tyr] (HELM PEPTIDE1{V.[Hyp].I.T.Y.[Pen].I.R.[Dab].T.[NCC[C@@H](N[*:1])C(=O)[*:2]].K.C.S.R.Y}$PEPTIDE1,PEPTIDE1,6:R3-13:R3$$$V2.0) | 0.125 | 0.125 | 0.25 | <1
2 | CC[C@H](C)[C@H](NC(=O)[C@@H]1C[C@@H](Oc2ccccc2)CN1C(=O)[C@@H](N)C(C)C)C(=O)N[C@H](C(=O)N[C@@H](Cc1ccc(O)cc1)C(=O)N[C@@H]1C(=O)N[C@@H](CC(N)=O)C(=O)N[C@@H](CCCNC(=N)N)C(=O)N[C@@H](CCN)C(=O)N[C@@H]([C@@H](C)O)C(=O)N[C@H](CCN)C(=O)N[C@@H](CCCCN)C(=O)N[C@H](C(=O)N[C@@H](CCN)C(=O)N[C@@H](CCCNC(=N)N)C(=O)N[C@@H](Cc2ccc(O)cc2)C(=O)O)CSSC1(C)C)[C@@H](C)O [Example 129, Val-Pro(4,4F2)-Ile-Thr-Tyr-Pen-Asn-Arg-Dab-Thr-^DDab-Lys-Cys-Dab-Arg-Tyr] (HELM PEPTIDE1{V.[O=C([C@@H]1C[C@@H](Oc2ccccc2)CN1[*:1])[*:2]].I.T.Y.[Pen].N.R.[Dab].T.[NCC[C@@H](N[*:1])C(=O)[*:2]].K.C.[Dab].R.Y}$PEPTIDE1,PEPTIDE1,6:R3-13:R3$$$V2.0) | 0.125 | 0.0625 | 0.5 | <1
3 | CC[C@H](C)[C@@H]1NC(=O)[C@@H](NC(=O)[C@H](Cc2ccc(O)cc2)NC(=O)[C@@H](NC(=O)[C@@H](NC(=O)[C@@H]2C[C@@H](O)CN2C(=O)[C@@H](N)C(C)C)[C@@H](C)CC)[C@@H](C)O)C(C)(C)SSC[C@@H](C(=O)N[C@@H](CCN)C(=O)N[C@@H](CCCNC(C)C)C(=O)N[C@@H](Cc2ccc(O)cc2)C(=O)O)NC(=O)[C@H](CCCCN)NC(=O)[C@@H](CCN)NC(=O)[C@H]([C@@H](C)O)NC(=O)[C@H](CCN)NC(=O)[C@H](CCCNC(=N)N)NC1=O [Example 137, Hyp-Ile-Thr-Tyr-Pen-Ile-Arg-Dab-Thr-^DDab-Lys-Cys-Dab-Orn(iPr)-Tyr] (HELM PEPTIDE1{V.[Hyp].I.T.Y.[Pen].I.R.[Dab].T.[NCC[C@@H](N[*:1])C(=O)[*:2]].K.C.[Dab].[CC(C)NCCC[C@H](N[*:1])C(=O)[*:2]].Y}$PEPTIDE1,PEPTIDE1,6:R3-13:R3$$$V2.0) | 0.125 | 0.125 | 0.25 | <1
4 | CC[C@H](C)[C@H](NC(=O)[C@@H]1C[C@@H](F)CN1C(=O)[C@@H](N)C(C)C)C(=O)N[C@H](C(=O)N[C@@H](Cc1ccc(O)cc1)C(=O)N[C@@H]1C(=O)N[C@@H](CC(N)=O)C(=O)N[C@@H](CCCNC(=N)N)C(=O)N[C@@H](CCN)C(=O)N[C@@H]([C@@H](C)O)C(=O)N[C@H](CCN)C(=O)N[C@@H](CCCCN)C(=O)N[C@H](C(=O)N[C@@H](CCN)C(=O)N[C@@H](CCCNC(=N)N)C(=O)N[C@@H](Cc2ccc(O)cc2)C(=O)O)CSSC1(C)C)[C@@H](C)O [Example 131, Val-Pro((4R)F)-Ile-Thr-Tyr-Pen-Asn-Arg-Dab-Thr-^DDab-Lys-Cys-Dab-Arg-Tyr] (HELM PEPTIDE1{V.[O=C([C@@H]1C[C@@H](F)CN1[*:1])[*:2]].I.T.Y.[Pen].N.R.[Dab].T.[NCC[C@@H](N[*:1])C(=O)[*:2]].K.C.[Dab].R.Y}$PEPTIDE1,PEPTIDE1,6:R3-13:R3$$$V2.0) | 0.25 | 0.125 | 0.5 | <1
5 | CC[C@H](C)[C@H](NC(=O)[C@@H]1C[C@@H](OC)CN1C(=O)[C@@H](N)C(C)C)C(=O)N[C@H](C(=O)N[C@@H](Cc1ccc(O)cc1)C(=O)N[C@@H]1C(=O)N[C@@H](CC(N)=O)C(=O)N[C@@H](CCCNC(=N)N)C(=O)N[C@@H](CCN)C(=O)N[C@@H]([C@@H](C)O)C(=O)N[C@H](CCN)C(=O)N[C@@H](CCCCN)C(=O)N[C@H](C(=O)N[C@@H](CCN)C(=O)N[C@@H](CCCNC(=N)N)C(=O)N[C@@H](Cc2ccc(O)cc2)C(=O)O)CSSC1(C)C)[C@@H](C)O [Example 130, Val-Pro((4R)OPh)-Ile-Thr-Tyr-Pen-Asn-Arg-Dab-Thr-^DDab-Lys-Cys-Dab-Arg-Tyr] (H-V[Hyp](Me)ITY[Pen]NR[Dab]T[dDab]KC[Dab]RY-OH; disulfide 6-13) | 0.125 | 0.125 | 0.25 | <1
6 | CC[C@H](C)[C@H](NC(=O)[C@@H]1CCCN1C(=O)[C@@H](N)C(C)C)C(=O)N[C@H](C(=O)N[C@@H](Cc1ccc(O)cc1)C(=O)N[C@@H]1C(=O)N[C@@H](CC(N)=O)C(=O)N[C@@H](CCCNC(=N)N)C(=O)N[C@@H](CCN)C(=O)N[C@@H]([C@@H](C)O)C(=O)N[C@H](CCN)C(=O)N[C@@H](CCCCN)C(=O)N[C@H](C(=O)N[C@@H](CCN)C(=O)N[C@@H](CCCNC(=N)N)C(=O)N[C@@H](Cc2ccc(O)cc2)C(=O)O)CSSC1(C)C)[C@@H](C)O [Example 80, Val-Pro-Ile-Thr-Tyr-Pen-Asn-Arg-Dab-Thr-^DDab-Lys-Cys-Dab-Arg-Tyr] (HELM PEPTIDE1{V.P.I.T.Y.[Pen].N.R.[Dab].T.[NCC[C@@H](N[*:1])C(=O)[*:2]].K.C.[Dab].R.Y}$PEPTIDE1,PEPTIDE1,6:R3-13:R3$$$V2.0) | 0.125 | 0.0625 | 0.25 | <1
7 | CC[C@H](C)[C@H](NC(=O)[C@@H]1C[C@@H](N)CN1C(=O)[C@@H](N)C(C)C)C(=O)N[C@H](C(=O)N[C@@H](Cc1ccc(O)cc1)C(=O)N[C@@H]1C(=O)N[C@@H](CC(N)=O)C(=O)N[C@@H](CCCNC(=N)N)C(=O)N[C@@H](CCN)C(=O)N[C@@H]([C@@H](C)O)C(=O)N[C@H](CCN)C(=O)N[C@@H](CCCCN)C(=O)N[C@H](C(=O)N[C@@H](CO)C(=O)N[C@H](C(=O)N[C@@H](Cc2ccc(O)cc2)C(=O)O)[C@@H](C)O)CSSC1(C)C)[C@@H](C)O [Example 119, Val-Pro((4R)NH2)-Ile-Thr-Tyr-Pen-Asn-Arg-Dab-Thr-^DDab-Lys-Cys-Ser-Thr-Tyr] (HELM PEPTIDE1{V.[N[C@@H]1C[C@@H](C(=O)[*:2])N([*:1])C1].I.T.Y.[Pen].N.R.[Dab].T.[NCC[C@@H](N[*:1])C(=O)[*:2]].K.C.S.T.Y}$PEPTIDE1,PEPTIDE1,6:R3-13:R3$$$V2.0) | 0.25 | 0.25 | 0.25 | <1
8 | CC[C@H](C)[C@H](NC(=O)[C@@H]1C[C@@H](O)CN1C(=O)[C@@H](N)C(C)C)C(=O)N[C@@H](CCCCNC)C(=O)N[C@@H](Cc1ccc(O)cc1)C(=O)N[C@@H]1C(=O)N[C@@H](CC(N)=O)C(=O)N[C@@H](CCCNC(=N)N)C(=O)N[C@@H](CCN)C(=O)N[C@@H]([C@@H](C)O)C(=O)N[C@H](CCN)C(=O)N[C@@H](CCCCN)C(=O)N[C@H](C(=O)N[C@@H](CCN)C(=O)N[C@@H](CCCNC(=N)N)C(=O)N[C@@H](Cc2ccc(O)cc2)C(=O)O)CSSC1(C)C [Example 125, Val-Hyp-Ile-Lys(Me)-Tyr-Pen-Asn-Arg-Dab-Thr-^DDab-Lys-Cys-Dab-Arg-Tyr] (HELM PEPTIDE1{V.[Hyp].I.[CNCCCC[C@H](N[*:1])C(=O)[*:2]].Y.[Pen].N.R.[Dab].T.[NCC[C@@H](N[*:1])C(=O)[*:2]].K.C.[Dab].R.Y}$PEPTIDE1,PEPTIDE1,6:R3-13:R3$$$V2.0) | 0.125 | 0.03125 | 0.5 | <1
